Assay results reported in patent US10315996B2, “ROR gamma (RORγ) modulators” (LEAD PHARMA HOLDING B.V., priority 2015, dated 2019).

Target: T1, RORγ (Homo sapiens, UniProt P51449)
T1 construct: expressed in transfected cells; host or cells: 293FT cells (Invitrogen), expression vector pFN26A (Promega)
T1 sequence (P51449 269-508 limits assumed): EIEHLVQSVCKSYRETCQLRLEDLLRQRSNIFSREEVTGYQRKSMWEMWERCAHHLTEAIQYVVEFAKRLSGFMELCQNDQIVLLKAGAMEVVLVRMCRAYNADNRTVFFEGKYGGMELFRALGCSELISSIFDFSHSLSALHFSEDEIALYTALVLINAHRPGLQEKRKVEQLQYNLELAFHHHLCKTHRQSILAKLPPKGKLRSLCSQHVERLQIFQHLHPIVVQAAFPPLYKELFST
Assay: RORγ GAL4 reporter gene assay
Format: cell-based
Settings: inhibition of RORγ activity, GAL4-RORγ-LBD luciferase reporter in 293FT cells, overnight incubation; read-out: mean pIC50 (converted)
How it was run: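 293FT cells were transiently co-transfected with GAL4-DBD–RORγ-LBD (or GAL4-VP16 control) and a 9×UAS luc2P reporter, then plated at 60,000 cells/well. Compound was added at final 0.2% DMSO for 16-24 h at 37 °C, and inhibition was measured by firefly luciferase luminescence.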

Row | Structure (SMILES) | IC50 [nM]
1 | O=C(Cc1ccc(S(=O)(=O)CC2CC2)cc1)Nc1ccc(C(=O)N(CC(F)(F)F)c2ccccc2)c(Cl)c1 [Example 123, 2-chloro-4-[2-(4-cyclopropylmethanesulfonylphenyl)acetamido]-N-phenyl-N-(2,2,2-trifluoroethyl)benzamide] | ≤ 10
2 | CC(C)CN(C)C(=O)c1ccc(NC(=O)Cc2ccc(S(=O)(=O)CC3CC3)cc2)cc1 [Example 8, 4-[2-(4-cyclopropylmethanesulfonylphenyl)acetamido]-N-methyl-N-(2-methylpropyl)benzamide] | ≤ 1000
3 | CN(C(=O)c1ccc(NC(=O)Cc2ccc(S(=O)(=O)CC3CC3)cc2)cc1Cl)c1ccccn1 [Example 67, 2-chloro-4-[2-(4-cyclopropylmethanesulfonylphenyl)acetamido]-N-methyl-N-(pyridin-2-yl)benzamide] | ≤ 1000
4 | CN1CCN(C(=O)c2ccc(NC(=O)Cc3ccc(S(=O)(=O)CC4CC4)cc3)cc2)C(c2ccccc2)C1 (centres unmarked) [Example 57, 2-(4-cyclopropylmethanesulfonylphenyl)-N-[4-(4-methyl-2-phenylpiperazine-1-carbonyl)phenyl]acetamide] | ≤ 100
5 | CCN(Cc1cc(C)on1)C(=O)c1ccc(NC(=O)Cc2ccc(S(=O)(=O)CC3CC3)cc2)cc1 [Example 56, 4-[2-(4-cyclopropylmethanesulfonylphenyl)acetamido]-N-ethyl-N-[(5-methyl-1,2-oxazol-3-yl)methyl]benzamide] | ≤ 100
6 | O=C(Cc1ccc(S(=O)(=O)NC2CC2)cc1)Nc1ccc(C(=O)N(CC(F)(F)F)c2ccccc2)cc1 [Example 109, 4-{2-[4-(cyclopropylsulfamoyl)phenyl]acetamido}-N-phenyl-N-(2,2,2-trifluoroethyl) benzamide] | ≤ 10
7 | CCCN(C(=O)c1ccc(NC(=O)Cc2ccc(S(=O)(=O)NC3CC3)cc2)cc1)c1cc(C)on1 [Example 93, 4-{2-[4-(cyclopropylsulfamoyl)phenyl]acetamido}-N-(5-methyl-1,2-oxazol-3-yl)-N-propylbenzamide] | ≤ 10
8 | CCN(C(=O)c1ccc(NC(=O)Cc2ccc(S(=O)(=O)CC3CC3)cc2)c(Cl)c1)c1ccccc1 [Example 53, 3-chloro-4-[2-(4-cyclopropylmethanesulfonylphenyl)acetamido]-N-ethyl-N-phenylbenzamide] | ≤ 100
9 | C=CCN(CC=C)C(=O)c1ccc(NC(=O)Cc2ccc(S(=O)(=O)CC3CC3)cc2)cc1 [Example 61, 4-[2-(4-cyclopropylmethanesulfonylphenyl)acetamido]-N,N-bis(prop-2-en-1-yl)benzamide] | ≤ 100

Results, then the molecule that gave them:

Row | IC50 [nM] | Structure (SMILES)
10 | ≤ 10 | O=C(Cc1ccc(S(=O)(=O)CC2CC2)cc1)Nc1ccc(C(=O)N(c2ccccn2)C2CCC2)cc1 [Example 139, N-cyclobutyl-4-[2-(4-cyclopropylmethanesulfonylphenyl)acetamido]-N-(pyridin-2-yl)benzamide]
11 | ≤ 10 | O=C(Cc1ccc(S(=O)(=O)CC2CC2)cc1)Nc1ccc(C(=O)N(c2ccccc2)C2COC2)cc1 [Example 149, 4-[2-(4-cyclopropylmethanesulfonylphenyl)acetamido]-N-(oxetan-3-yl)-N-phenylbenzamide]
12 | ≤ 10 | CCN(C(=O)c1ccc(NC(=O)Cc2ccc(S(=O)(=O)CC3CC3)cc2)cc1Cl)c1ccccc1Cl [Example 128, 2-chloro-N-(2-chlorophenyl)-4-[2-(4-cyclopropylmethanesulfonylphenyl)acetamido]-N-ethylbenzamide]
13 | ≤ 100 | Cc1ccc(N(C(=O)c2ccc(NC(=O)Cc3ccc(S(=O)(=O)CC4CC4)cc3)cc2)C(C)(C)CO)cc1 [Example 153, 4-[2-(4-cyclopropylmethanesulfonylphenyl)acetamido]-N-(1-hydroxy-2-methylpropan-2-yl)-N-(4-methylphenyl)benzamide]
14 | ≤ 100 | O=C(Cc1ccc(S(=O)(=O)CC2CC2)cc1)Nc1ccc(C(=O)N(c2ccccn2)C2CC2)cc1 [Example 137, N-cyclopropyl-4-[2-(4-cyclopropylmethanesulfonylphenyl)acetamido]-N-(pyridin-2-yl)benzamide]
